{"source": "paper PMC8775380", "about": "“A Complexed Crystal Structure of a Single-Stranded DNA-Binding Protein with Quercetin and the Structural Basis of Flavonol Inhibition Specificity” (International Journal of Molecular Sciences, 2022)", "key": {"[1]": {"biological_target": "T1, Pseudomonas aeruginosa single-stranded DNA-binding protein (PaSSB) (Pseudomonas aeruginosa, UniProt P40947)", "T1 sequence (P40947 2-165)": "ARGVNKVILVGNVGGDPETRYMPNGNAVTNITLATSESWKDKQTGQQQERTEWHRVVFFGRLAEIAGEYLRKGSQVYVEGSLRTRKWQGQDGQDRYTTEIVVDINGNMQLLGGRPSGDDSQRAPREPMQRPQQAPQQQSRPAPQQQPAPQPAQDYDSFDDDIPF", "assay": "EMSA, inhibition of PaSSB binding to biotin-labeled dT35 ssDNA", "type": "biochemical", "set-up": "gene ssb; purified recombinant PaSSB"}, "[2]": {"biological_target": "T1, Pseudomonas aeruginosa single-stranded DNA-binding protein (PaSSB)", "assay": "X-ray crystal structure of the complex, […] Å", "set-up": "gene ssb; recombinant PaSSB; amino acids 114–165 not observed in the structure"}, "[3]": {"biological_target": "PaSSB (single-stranded DNA-binding protein) (Pseudomonas aeruginosa, UniProt P40947 1-165)", "assay": "EMSA; no flavonol; protein concentration at 50% bound; EMSA: 40 mM Tris-HCl pH 7.5, 50 mM NaCl, 37 °C 60 min, DNA 30 fmol/uL, PaSSB 0-5 uM; 8% native PAGE in TBE; flavonols dissolved in 10% DMSO", "settings": "protein: recombinant; chain copies: 4; label: biotin (3' in Results, 5' in Methods); single strand"}}, "data": [{"molecule": "O=c1c(O)c(-c2cc(O)c(O)c(O)c2)oc2cc(O)cc(O)c12", "note": "[myricetin]", "values": [{"measurement": "IC50", "setting": "[1]", "result": "2800 ± 400", "unit": "nM"}]}, {"molecule": "O=c1c(O)c(-c2ccc(O)c(O)c2)oc2cc(O)cc(O)c12", "note": "[quercetin]", "values": [{"measurement": "X-ray crystal structure of the complex, 2.32 Å", "setting": "[2]", "result": "The electron density of quercetin was well-defined and indicated the presence of quercetin in the structure of PaSSB"}]}, {"molecule": "TTTTTTTTTTTTTTTTTTTTTTTTTTTTTTTTTTT (ssDNA)", "note": "[dT35]", "values": [{"measurement": "apparent K (half saturation)", "setting": "[3]", "result": "548 ± 36", "unit": "nM"}]}]}
